Data from US10677782B2, “Methods of determining interferon having direct inhibitory effects on tumors and uses thereof” (SUPERLAB FAR EAST LIMITED, priority 2013, dated 2020).

Assays:
[1] = test system: procaspase-3, cleaved caspase-3, procaspase-8, cleaved caspase-8, PARP in SW620 cells; assay: Apoptosis-related molecular markers by Western Blot; format: cell-based, human; settings: 24 hr or 48 hr; interferons at 10 mcg/ml
Text: (§1) Thereafter, apoptosis-related molecular markers were monitored by Western Blot. The primary antibodies used were mouse monoclonal anti-beta-tubulin (1:2000, Cat #: CW0098A) and mouse monoclonal anti-GAPDH (1:2000, Cat #: CW0100A) (Kangwei Biotechnology, China); mouse monoclonal anti-PARP (1:1000, Cat #: se-2007, Santa Cruz Biotechnology, Inc.); rabbit monoclonal anti-procaspase 3 (1:1000, Cat #: 9665), and rabbit polyclonal anti-cleaved caspase 3 (1:1000, Cat #: 9661) (Cell Signaling Technology, USA); goat polyclonal anti-procaspase 8 (1:1000, Cat #: sc-6136, Santa Cruz Biotechnology, Inc); rabbit monoclonal anti-cleaved caspase 8 (1:1000, Cat #: 9496) (Cell Signaling Technology, USA).

[2] = test system: procaspase-3, cleaved caspase-3, procaspase-8, cleaved caspase-8, PARP in A549 cells; assay: as above; format: cell-based, human; settings: 24 hr or 48 hr; interferons at 10 mcg/ml
Text: as §1

[3] = test system: human lung cancer SPC-A4 xenografts; assay: Human lung cancer SPC-A4 xenografts in nude mice (Example 4); format: in vivo; settings: 5 mg/kg i.v.
Method: (§2) Before commencement of this study, the xenografts were passaged twice in nude mice. Under sterile conditions, well-grown tumors were cut into 1.5 mm^3 fragments and one such fragment was injected by trocar needle into the right flank of each study animal. […] Individual tumor size (length and width) was measured twice per week with microcalipers. Tumor volume (V) was calculated using the formula: V=(length×width^2)/2. Individual relative tumor volume (RTV) was calculated using the formula: RTV=Vt/V0, where Vt is the tumor volume on the day of measurement and V0 is the tumor volume on the day of first treatment. Therapeutic effect of the test article or control article was expressed in terms of TIC (%), using the formula: TIC (%) (mean RTV of the treated group/mean RTV of the control group)×100%; and in terms of % Inhibition, using the formula: % Inhibition=100%−T/C %.
The 1.5 mm^3 fragments were then used for s.c. implantation into the test animals.

[4] = test system: human hepatoma SMMC-7721; assay: Human hepatoma SMMC-7721 xenografts in nude mice (Example 1); format: in vivo; settings: 5 mg/kg i.v.
Method: The test article was used without dilution. It was stored at 4° C. until thawed for injection.
The animals used were 4-6 weeks old male BALB/cA nu/nu mice, weighing about 23±2 g, obtained from the Shanghai Institute of Materia Medica (Shanghai, P.R. China). The study protocol was reviewed by the Committee on the Use and Care of Animals of Shanghai Institute of Materia Medica for compliance with regulations, and Committee approval was obtained prior to study initiation. Wherever possible, procedures used in this study were designed to avoid or minimize discomfort, distress, and pain to the animals. Animals that experience severe or chronic pain or distress that could not be relieved were painlessly euthanized, in accordance to regulations. Animals were housed 6 to a cage. They were ear-marked with ear hole punch identification. The room temperature was maintained at 25° C.±1° C. Lighting was set at 12 hr on and 12 hr off. Food was provided ad libitum. City tap water, filtered with a 5 micrometer (μm) filter, was provided to the animals ad libitum via water bottles. Neither the Study Director nor Huiyang Life Science and Technology Corp. was aware of any contaminant in the food or water that would interfere with or influence the intent and purpose of this study.
The test article (rSIFN-co) and the vehicle control were each administered intratumorally (i.t.). The test article was administered in a volume of 0.05 ml-0.15 ml per mouse per treatment, depending on the group to which the animal was assigned. […] Normal saline was injected in a volume of 0.15 ml per mouse, which was used as vehicle control.
Animals were assigned to treatment groups randomly. Initially, all animals were placed in one large animal cage. For assignment to the study, they were later separately housed, with 6 animals per cage per treatment group. Groups 1 and 2 are Control groups in which the animals were each administered the vehicle every other day after the first treatment. […] The animals in Groups 4, 5 and 6 were each given rSIFN-co every other day after the first treatment at 0.15 mg/mouse (Group 4) or 0.10 mg/mouse (Group 5) or 0.05 mg/mouse (Group 6), respectively. Tumor growth was monitored by measuring the length and width of each tumor twice a week during the course of the study. Each animal was also weighed twice a week during the course of the study.
as §2

[5] = test system: Human Cervical Cancer Hela Xenografts; assay: Human cervical cancer Hela xenografts in nude mice (Example 2); format: in vivo; settings: 5 mg/kg i.v.
Method: as §2
Then 1.5 mm^3 fragments were prepared for s.c. implantation into the animals.

[6] = test system: Human Colon Cancer HT-29 Xenografts; assay: Human colon cancer HT-29 xenografts in nude mice (Example 3); format: in vivo; settings: 5 mg/kg i.v.
Method: as §2
Then, 1.5 mm^3 fragments were prepared for s.c. implantation into the test animals.

Structure (SMILES)	level of apoptosis-related molecular markers (procaspase-3, procaspase-8, PARP, cleaved caspase-3, cleaved caspase-8) [1]	level of apoptosis-related molecular markers (procaspase-3, procaspase-8, PARP, cleaved caspase-3, cleaved caspase-8) [2]	TV (mm^3, mean ± SD) (D0) ([3]; day 0, start of treatment) [mm^3]	TV (mm^3, mean ± SD) (D21) ([3]; day 21) [mm^3]	TV (mm^3, mean ± SD) (D0) ([4]; day 0, start of treatment) [mm^3]	TV (mm^3, mean ± SD) (D21) ([4]; day 21) [mm^3]	TV (mm^3, mean ± SD) (D0) ([5]; day 0, start of treatment) [mm^3]	TV (mm^3, mean ± SD) (D28) ([5]; day 28) [mm^3]	TV (mm^3, mean ± SD) (D0) ([6]; day 0, start of treatment) [mm^3]	TV (mm^3, mean ± SD) (D28) ([6]; day 28) [mm^3]
O=c1[nH]cc(F)c(=O)[nH]1 [5FU, reference compound]	significant reduction of in the level of procaspase-3, procaspase-8 and PARP, but exhibited an enhanced level of cleaved caspase-3 and cleaved caspase-8	significant reduction of in the level of procaspase-3, procaspase-8 and PARP, but exhibited an enhanced level of cleaved caspase-3 and cleaved caspase-8								
CO[C@@]12[C@H](COC(N)=O)C3=C(C(=O)C(C)=C(N)C3=O)N1C[C@@H]1N[C@@H]12 [MMC, Mitomycin C, reference compound]			166 ± 42	1831 ± 540	125 ± 35	621 ± 247	130 ± 28	676 ± 358	132 ± 22	395 ± 95
